Source: US20020155518A1, “Method of detecting compounds that control fungal diseases via effects on sporulation” (priority 2000, published 2002)

What was measured:
Aspergillus nidulans [1] = test: Sporulation assay, paper disc diffusion on PDA seeded with spores; format: cell-based, Aspergillus nidulans strain 003 (ATCC 36321)
[2] = system: Wheat Powdery Mildew (Blumeria [Erysiphe] graminis f.sp. tritici); details: in vivo; note: key: '+++' =high control; '++' =moderate control; '+' =low control; '0'=no control
[3] = system: Leptosphaeria (Septoria) nodorum; test: Protectant foliar spray test against wheat L. nodorum blotch; format: in vivo; details: wheat, foliar spray before inoculation; vs untreated inoculated controls; note: key: '+++' =high control; '++' =moderate control; '+' =low control; '0'=no control
[4] = system: Apple Scab (Venturia inaequalis); test: Protectant foliar spray test against apple scab; format: in vivo; details: apple seedlings, foliar spray before inoculation; vs untreated inoculated controls; note: key: '+++' =high control; '++' =moderate control; '+' =low control; '0'=no control
[5] = system: Rice Blast (Magnaporthe grisea); format: in vivo; details: foliar spray before inoculation, vs untreated inoculated controls
Aspergillus nidulans [6] = test: High-throughput screen for antisporulant activity, direct application with a replicator; format: cell-based; details: direct application to the medium using a replicator; 2 days at 37° C.
Text: For high-throughput screens, 245mm square bioassay dishes were poured and the medium containing the spore inoculum was allowed to solidify prior to application of test samples. Test samples, representing a broad spectrum of diverse chemical structures, were applied to the surface of the agar medium either by hand, using a replicator, or by robotic application. Each screen included a positive control treatment (e.g., 5 ∝g of one of the active benzophenones described elsewhere herein) that provided a positive response. Plates were incubated for 2 days at 37° C. Positives were initially identified by the presence of a discolored zone around the test sample. The positives were confirmed by retest followed by observation under a low power microscope (×20 magnification).
7000 compounds with diverse structures have been tested using the such a highthroughput screen. The compounds were tested by direct application to the medium using a replicator.

With `C[C@@H]([C@H](N)C(=O)N[C@H](C(=O)O)[C@H]1O[C@@H](n2ccc(=O)[nH]c2=O)[C@H](O)[C@@H]1O)[C@H](O)c1ccc(O)cn1` [Nikkomycin] the Active (Aspergillus nidulans [1]) was “No”, the Inactive (Aspergillus nidulans [1]) was “Yes” and the Moderately active (Aspergillus nidulans [1]) was “No”.
In the case of `CC1=C(C(=O)Nc2ccccc2)SCCO1` [Carboxin], the Active (Aspergillus nidulans [1]) is reported as “No”, the Inactive (Aspergillus nidulans [1]) is reported as “Yes” and the Moderately active (Aspergillus nidulans [1]) is reported as “No”.
With `COc1cc(C)c(C(=O)c2c(Cl)cccc2OC)c(OCc2cccc(C)c2)c1OC` [I, (2-chloro-6-methoxyphenyl)[3,4-dimethoxy-6-methyl-2-[(3-methylphenyl)methoxy]phenyl]methanone] the “Level of Plant Disease Control, Wheat Powdery Mildew” value (from here on “Level … Wheat Powdery Mildew”) [2] was “+++”, the “Level of Plant Disease Control, Wheat L. nodorum” value (from here on “Level … Wheat L. nodorum”) [3] was 0 and the “Level of Plant Disease Control, Apple Scab” value (from here on “Level … Apple Scab”) [4] was “++”. For the same compound, the “Level of Plant Disease Control, Rice Blast” value (“Level … Rice Blast” below) [5] was “+”.
`COc1cc(C)c(C(=O)c2c(C)cccc2OC)c(OC)c1OC` [G, (2-methoxy-6-methylphenyl)(2,3,4-trimethoxy-6-methylphenyl)methanone] was tested, and the “Level … Wheat Powdery Mildew” value [2] was “+++”, the “Level … Wheat L. nodorum” value [3] was 0 and the “Level … Apple Scab” value [4] was 0. The “Level … Rice Blast” value [5] was 0.
For `COc1cc(C)c(C(=O)c2c(C)cccc2C)c(OC)c1OC` [L, (2,6-dimethylphenyl)(2,3,4-trimethoxy-6-methylphenyl)methanone], the “Level … Wheat Powdery Mildew” value [2] was “+++”, the “Level … Wheat L. nodorum” value [3] was 0 and the “Level … Apple Scab” value [4] was 0. For the same compound, the “Level … Rice Blast” value [5] was 0.
With `COc1cc(C)c(C(=O)c2c(C)ccc(Cl)c2C)c(OC)c1OC` [Q, (3-chloro-2,6-dimethylphenyl)(2,3,4-trimethoxy-6-methylphenyl)methanone] the “Level … Wheat Powdery Mildew” value [2] was “+++”, the “Level … Wheat L. nodorum” value [3] was 0 and the “Level … Apple Scab” value [4] was “+”. The “Level … Rice Blast” value [5] was “++”.
In the case of `COc1cc(C)c(C(=O)c2c(C)ccc3ccccc23)c(OC)c1OC` [F, (2,3,4-trimethoxy-6-methylphenyl)(2-methyl-1-naphthalenyl)methanone], the “Level … Wheat Powdery Mildew” value [2] is reported as “+++”, the “Level … Wheat L. nodorum” value [3] is reported as 0 and the “Level … Apple Scab” value [4] is reported as 0. The “Level … Rice Blast” value [5] was “++”.
`CC(C)(C)CC(C)(C)c1ccc(C(=O)O)cc1` [A, 4-(1,1,3,3-tetramethylbutyl)benzoic acid] was tested, and the anti-sporulation activity (Aspergillus nidulans [6]) was “tested positive”.
`COc1cc(C)c(C(=O)c2c(OC)ccc(C(F)(F)F)c2C)c(OC)c1OC` [T, [6-methoxy-2-methyl-3-(trifluoromethyl)phenyl](2,3,4-trimethoxy-6-methylphenyl)methanone] was tested, and the “Level … Wheat Powdery Mildew” value [2] was “+++”, the “Level … Wheat L. nodorum” value [3] was 0 and the “Level … Apple Scab” value [4] was 0. The “Level … Rice Blast” value [5] was 0.
